Converted amounts (≈) assume the structure as drawn. The source made the active and inactive calls. The rule behind the calls is not given here. A value given as a limit tells only on which side of the number the result lay.

Data set [1] is described as follows: AUC (0 to infinity) in ICR mouse at 1 mg/kg, iv by LC-MS/MS method. It is filed as ADME, organism-based. Details: dose 1 mg/kg, route intravenous, time infinity. The note with it: in vivo.
In data set [2] the test system is A-431. The experiment in a line: Antiproliferative activity against human A431 cells incubated for 72 hrs by SRB assay. It is filed as functional, cell-based. The conditions noted are these: A-431, 72 h.
Data set [3] addresses T1, Cyclin-G-associated kinase (Homo sapiens) (UniProt O14976).
T1 sequence (whole entry): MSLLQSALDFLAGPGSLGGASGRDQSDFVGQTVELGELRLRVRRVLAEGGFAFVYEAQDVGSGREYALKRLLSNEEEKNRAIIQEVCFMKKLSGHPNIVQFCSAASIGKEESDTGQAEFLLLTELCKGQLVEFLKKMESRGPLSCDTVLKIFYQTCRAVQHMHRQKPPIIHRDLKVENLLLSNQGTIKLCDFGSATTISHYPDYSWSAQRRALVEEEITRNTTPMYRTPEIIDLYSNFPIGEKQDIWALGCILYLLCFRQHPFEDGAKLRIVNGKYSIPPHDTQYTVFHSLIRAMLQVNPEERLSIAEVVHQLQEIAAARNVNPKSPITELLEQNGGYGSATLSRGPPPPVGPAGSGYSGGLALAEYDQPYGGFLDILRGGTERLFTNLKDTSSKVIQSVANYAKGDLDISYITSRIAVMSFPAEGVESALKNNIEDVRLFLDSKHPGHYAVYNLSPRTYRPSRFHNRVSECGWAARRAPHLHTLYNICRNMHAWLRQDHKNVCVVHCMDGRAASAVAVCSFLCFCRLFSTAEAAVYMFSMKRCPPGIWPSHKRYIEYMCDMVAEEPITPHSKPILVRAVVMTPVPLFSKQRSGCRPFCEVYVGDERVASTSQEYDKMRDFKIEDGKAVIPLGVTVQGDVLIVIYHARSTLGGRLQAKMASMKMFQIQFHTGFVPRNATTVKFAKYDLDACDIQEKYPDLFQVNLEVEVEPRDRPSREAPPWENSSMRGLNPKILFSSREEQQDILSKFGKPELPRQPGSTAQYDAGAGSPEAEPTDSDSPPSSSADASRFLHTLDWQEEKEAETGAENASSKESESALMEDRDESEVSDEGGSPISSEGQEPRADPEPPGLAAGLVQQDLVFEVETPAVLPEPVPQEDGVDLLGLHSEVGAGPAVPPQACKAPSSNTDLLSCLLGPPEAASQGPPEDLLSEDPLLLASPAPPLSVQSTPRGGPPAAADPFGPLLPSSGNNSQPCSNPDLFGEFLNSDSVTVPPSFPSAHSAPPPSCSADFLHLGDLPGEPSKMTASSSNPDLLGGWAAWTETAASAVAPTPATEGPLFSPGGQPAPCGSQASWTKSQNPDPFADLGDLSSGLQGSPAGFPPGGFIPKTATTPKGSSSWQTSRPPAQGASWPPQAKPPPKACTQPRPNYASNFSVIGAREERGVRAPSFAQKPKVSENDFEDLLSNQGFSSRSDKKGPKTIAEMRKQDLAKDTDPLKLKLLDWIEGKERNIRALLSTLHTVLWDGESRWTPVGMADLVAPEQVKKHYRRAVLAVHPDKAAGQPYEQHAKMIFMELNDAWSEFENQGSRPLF
The experiment in a line: Inhibition of human GAK expressed in bacterial system assessed as remaining enzyme activity at 1000 nM relative to untreated control.

The nature of data set [4]: Half life in ICR mouse at 1 mg/kg, iv by LC-MS/MS method. It is filed as ADME, organism-based. The conditions noted are these: in vivo.
Data set [5] in a line: Tmax in ICR mouse at 10 mg/kg, po by LC-MS/MS method. It is filed as ADME, organism-based. The note with it: in vivo.
Data set [6] relates to A-431. As to the kind of experiment: Antitumor activity against human A431 cells xenografted in BALB/c mouse assessed as inhibition of tumor growth at 50 mg/kg, po qd for 14 consecutive days. It is filed as functional. The note with it: A-431, po, read-out: TGI.
Data set [7] can be described thus: Toxicity in human NCI-H1975 cells xenografted BALB/c mouse assessed as mouse mortality at 50 mg/kg, po qd for 14 consecutive days. It is filed as organism-based. The note with it: in vivo.
The subject of data set [8] is NCI-H1975. The conditions noted are these: Homo sapiens, at 50 mg/kg.
Description: Antitumor activity against human NCI-H1975 cells xenografted in BALB/c mouse assessed as inhibition of tumor cell proliferation by measuring Ki-67 expression at 50 mg/kg, po qd for 14 consecutive days by immunohistochemistry
Data set [9] is described as follows: AUC (0 to t) in ICR mouse at 1 mg/kg, iv by LC-MS/MS method. It is filed as ADME, organism-based. The conditions noted are these: in vivo.
Data set [10] is described as follows: Clearance in ICR mouse at 1 mg/kg, iv by LC-MS/MS method. It is filed as ADME, organism-based. The conditions noted are these: in vivo.
Data set [11] concerns the target Receptor tyrosine-protein kinase erbB-2 (Homo sapiens) (UniProt P04626). The experiment in a line: Inhibition of human ERBB2 expressed in mammalian system assessed as remaining enzyme activity at 1000 nM relative to untreated control.
The nature of data set [12]: Apparent volume of distribution in ICR mouse at 1 mg/kg, iv by LC-MS/MS method. It is filed as ADME, organism-based. The note with it: in vivo, read-out: Vz.
The target of data set [13] is Epidermal growth factor receptor (Homo sapiens, UniProt P00533). As to the kind of experiment: Inhibition of EGF-induced EGFR kinase domain phosphorylation in human NCI-H1975 cells at 1000 nM pre-incubated for 2 hrs followed by stimulation with EGF for 15 mins by Western blot method. It is filed as cell-based.
Chain of Epidermal growth factor receptor (P00533 whole entry, the tested form may be a part): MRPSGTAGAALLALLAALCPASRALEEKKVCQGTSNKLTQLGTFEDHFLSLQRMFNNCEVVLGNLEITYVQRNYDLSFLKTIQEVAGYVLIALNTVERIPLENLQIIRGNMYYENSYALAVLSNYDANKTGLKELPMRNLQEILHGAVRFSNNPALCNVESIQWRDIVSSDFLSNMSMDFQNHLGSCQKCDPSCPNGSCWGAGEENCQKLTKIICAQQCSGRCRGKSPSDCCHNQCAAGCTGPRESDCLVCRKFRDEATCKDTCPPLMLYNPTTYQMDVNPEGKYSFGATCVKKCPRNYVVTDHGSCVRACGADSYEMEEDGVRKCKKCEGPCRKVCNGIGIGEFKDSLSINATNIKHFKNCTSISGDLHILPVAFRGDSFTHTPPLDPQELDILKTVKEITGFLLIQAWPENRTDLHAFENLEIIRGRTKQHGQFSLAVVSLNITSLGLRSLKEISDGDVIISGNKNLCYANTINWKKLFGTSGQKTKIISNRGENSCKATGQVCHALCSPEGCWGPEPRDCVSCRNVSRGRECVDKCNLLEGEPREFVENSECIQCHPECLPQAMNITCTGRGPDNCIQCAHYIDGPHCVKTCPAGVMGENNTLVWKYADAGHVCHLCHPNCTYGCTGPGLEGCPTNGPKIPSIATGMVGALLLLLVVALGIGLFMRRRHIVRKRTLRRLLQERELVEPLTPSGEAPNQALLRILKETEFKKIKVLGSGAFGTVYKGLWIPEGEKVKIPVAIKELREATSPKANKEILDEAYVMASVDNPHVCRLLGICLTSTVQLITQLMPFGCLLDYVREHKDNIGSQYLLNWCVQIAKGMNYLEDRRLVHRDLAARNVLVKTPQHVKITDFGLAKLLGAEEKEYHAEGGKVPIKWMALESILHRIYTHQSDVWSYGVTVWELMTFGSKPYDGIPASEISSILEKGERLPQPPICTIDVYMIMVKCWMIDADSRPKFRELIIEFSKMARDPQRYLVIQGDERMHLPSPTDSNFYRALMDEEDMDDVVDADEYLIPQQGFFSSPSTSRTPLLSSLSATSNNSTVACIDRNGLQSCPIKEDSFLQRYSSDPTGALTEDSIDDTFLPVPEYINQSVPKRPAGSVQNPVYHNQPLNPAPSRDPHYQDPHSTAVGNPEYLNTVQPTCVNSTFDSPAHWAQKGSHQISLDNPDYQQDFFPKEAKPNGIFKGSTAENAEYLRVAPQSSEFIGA
Data set [14] addresses Receptor tyrosine-protein kinase erbB-4 (Homo sapiens) (UniProt Q15303). The experiment in a line: Inhibition of human ERBB4 expressed in bacterial system assessed as remaining enzyme activity at 1000 nM relative to untreated control.
A short description of data set [15]: Half life in ICR mouse at 10 mg/kg, po by LC-MS/MS method. It is filed as ADME, organism-based. The note with it: in vivo.
Data set [16] addresses Calcium/calmodulin-dependent protein kinase type 1 (Homo sapiens) (UniProt Q14012). The experiment in a line: Inhibition of human CAMK1 expressed in bacterial system assessed as remaining enzyme activity at 1000 nM relative to untreated control.
Data set [17] can be described thus: Toxicity in human NCI-H1975 cells xenografted BALB/c mouse assessed as body weight loss at 50 mg/kg, po qd for 14 consecutive days. It is filed as organism-based. The conditions noted are these: in vivo.
A short description of data set [18]: AUC (0 to infinity) in ICR mouse at 10 mg/kg, po by LC-MS/MS method. It is filed as ADME, organism-based. The conditions noted are these: in vivo. Details: dose 10 mg/kg, time infinity, route oral.
Data set [19] is described as follows: Cmax in ICR mouse at 10 mg/kg, po by LC-MS/MS method. It is filed as ADME, organism-based. Further details: dose 10 mg/kg, route oral. The note with it: in vivo.
Data set [20] in a line: AUC (0 to t) in ICR mouse at 10 mg/kg, po by LC-MS/MS method. It is filed as ADME, organism-based. The conditions noted are these: in vivo.
Data set [21] is described as follows: Thermodynamic solubility of the compound in 0.1M PBS buffer at pH 7.4 by UV-visible spectrophotometry. It is filed as physicochemical. The note with it: read-out: Therm_solubility.
Data set [22] relates to NCI-H1975. The experiment in a line: Antiproliferative activity against human NCI-H1975 cells incubated for 72 hrs by SRB assay. It is filed as functional, cell-based. The note with it: NCI-H1975, 72 h.

Chain of Calcium/calmodulin-dependent protein kinase type 1 (Homo sapiens) (Q14012 whole entry, looked up): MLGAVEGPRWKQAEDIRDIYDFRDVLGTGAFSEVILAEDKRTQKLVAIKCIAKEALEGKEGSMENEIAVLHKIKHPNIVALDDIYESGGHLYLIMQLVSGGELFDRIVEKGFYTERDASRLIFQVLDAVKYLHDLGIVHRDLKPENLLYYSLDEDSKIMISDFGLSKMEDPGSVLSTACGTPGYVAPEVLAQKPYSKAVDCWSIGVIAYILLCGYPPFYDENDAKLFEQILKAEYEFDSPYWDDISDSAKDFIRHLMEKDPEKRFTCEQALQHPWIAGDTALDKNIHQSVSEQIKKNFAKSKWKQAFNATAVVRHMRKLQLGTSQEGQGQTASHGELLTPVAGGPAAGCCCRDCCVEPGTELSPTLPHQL
Chain of Receptor tyrosine-protein kinase erbB-4 (Homo sapiens) (Q15303 whole entry): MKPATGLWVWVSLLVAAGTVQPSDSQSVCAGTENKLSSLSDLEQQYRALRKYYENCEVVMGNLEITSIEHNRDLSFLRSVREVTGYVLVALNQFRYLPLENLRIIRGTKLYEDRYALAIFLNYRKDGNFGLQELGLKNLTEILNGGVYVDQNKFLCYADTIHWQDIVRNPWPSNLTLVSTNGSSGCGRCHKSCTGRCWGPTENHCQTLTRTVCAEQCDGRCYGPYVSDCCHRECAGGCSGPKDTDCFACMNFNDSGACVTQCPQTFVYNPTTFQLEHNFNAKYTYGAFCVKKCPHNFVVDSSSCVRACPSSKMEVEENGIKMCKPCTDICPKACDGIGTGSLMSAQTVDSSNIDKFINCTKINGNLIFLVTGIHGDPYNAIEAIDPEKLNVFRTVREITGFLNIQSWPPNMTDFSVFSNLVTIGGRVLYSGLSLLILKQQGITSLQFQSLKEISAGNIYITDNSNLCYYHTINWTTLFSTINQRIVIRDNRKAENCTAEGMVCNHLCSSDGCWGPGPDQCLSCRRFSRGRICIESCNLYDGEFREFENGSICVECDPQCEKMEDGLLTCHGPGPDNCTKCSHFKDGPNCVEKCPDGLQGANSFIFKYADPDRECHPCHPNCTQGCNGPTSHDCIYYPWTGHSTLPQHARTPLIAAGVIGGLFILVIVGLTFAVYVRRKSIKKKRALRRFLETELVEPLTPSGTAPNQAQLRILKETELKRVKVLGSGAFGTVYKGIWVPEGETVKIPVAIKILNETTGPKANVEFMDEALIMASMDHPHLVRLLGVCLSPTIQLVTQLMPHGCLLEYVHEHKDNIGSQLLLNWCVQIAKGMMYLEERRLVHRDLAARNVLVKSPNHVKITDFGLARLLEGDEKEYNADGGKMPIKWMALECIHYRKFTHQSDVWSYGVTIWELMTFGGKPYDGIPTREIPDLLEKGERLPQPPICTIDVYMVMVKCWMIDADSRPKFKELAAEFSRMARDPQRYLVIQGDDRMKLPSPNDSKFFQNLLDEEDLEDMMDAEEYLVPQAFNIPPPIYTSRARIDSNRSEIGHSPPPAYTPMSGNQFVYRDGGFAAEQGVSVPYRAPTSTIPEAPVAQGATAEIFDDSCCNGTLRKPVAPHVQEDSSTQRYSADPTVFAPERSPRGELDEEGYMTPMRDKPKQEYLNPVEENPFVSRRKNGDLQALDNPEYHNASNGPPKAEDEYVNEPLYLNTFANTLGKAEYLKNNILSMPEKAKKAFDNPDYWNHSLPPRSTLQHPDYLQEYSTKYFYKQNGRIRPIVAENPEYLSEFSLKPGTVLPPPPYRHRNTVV
Chain of Receptor tyrosine-protein kinase erbB-2 (Homo sapiens) (P04626 whole entry): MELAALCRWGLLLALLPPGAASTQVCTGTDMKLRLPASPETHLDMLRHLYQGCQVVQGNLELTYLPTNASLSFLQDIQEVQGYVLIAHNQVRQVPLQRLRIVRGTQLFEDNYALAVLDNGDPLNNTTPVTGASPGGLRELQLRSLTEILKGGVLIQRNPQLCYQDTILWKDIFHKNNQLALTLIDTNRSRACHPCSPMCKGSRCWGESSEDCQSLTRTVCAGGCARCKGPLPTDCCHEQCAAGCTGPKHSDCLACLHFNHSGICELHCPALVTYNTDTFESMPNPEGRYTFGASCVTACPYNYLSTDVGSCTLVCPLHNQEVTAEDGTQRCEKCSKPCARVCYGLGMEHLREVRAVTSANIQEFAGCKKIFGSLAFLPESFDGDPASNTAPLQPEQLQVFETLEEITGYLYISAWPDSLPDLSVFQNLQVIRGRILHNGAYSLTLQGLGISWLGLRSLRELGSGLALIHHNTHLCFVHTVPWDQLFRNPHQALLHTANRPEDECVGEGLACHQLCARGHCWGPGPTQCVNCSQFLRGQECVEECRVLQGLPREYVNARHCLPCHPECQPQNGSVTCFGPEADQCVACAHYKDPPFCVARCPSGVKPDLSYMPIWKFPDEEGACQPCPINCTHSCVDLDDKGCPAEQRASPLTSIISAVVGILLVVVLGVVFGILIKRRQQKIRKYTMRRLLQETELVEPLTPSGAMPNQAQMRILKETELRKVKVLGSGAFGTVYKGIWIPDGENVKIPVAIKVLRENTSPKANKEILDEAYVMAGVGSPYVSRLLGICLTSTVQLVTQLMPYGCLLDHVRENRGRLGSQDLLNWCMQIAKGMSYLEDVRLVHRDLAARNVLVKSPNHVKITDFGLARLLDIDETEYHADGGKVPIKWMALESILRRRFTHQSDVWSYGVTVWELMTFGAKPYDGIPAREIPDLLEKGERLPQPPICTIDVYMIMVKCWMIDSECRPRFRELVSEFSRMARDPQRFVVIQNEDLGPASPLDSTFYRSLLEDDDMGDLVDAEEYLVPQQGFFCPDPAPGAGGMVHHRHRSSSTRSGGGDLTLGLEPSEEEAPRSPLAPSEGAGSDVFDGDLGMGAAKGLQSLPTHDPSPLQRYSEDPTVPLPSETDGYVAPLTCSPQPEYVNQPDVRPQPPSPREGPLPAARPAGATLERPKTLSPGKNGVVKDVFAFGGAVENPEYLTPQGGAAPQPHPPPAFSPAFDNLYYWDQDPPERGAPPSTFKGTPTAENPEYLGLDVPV

As to `C=CC(=O)Nc1cccc(-n2c(=O)c(=O)n(C(C)C)c3cnc(Nc4ccc(N5CCN(C)CC5)cc4OC)nc32)c1`, the values for the AUC(0-inf) in [1] and in data set [18] were 143 ng·h/mL and 680 ng·h/mL, respectively. The IC50 in data set [2] was 7.77 µM; in [22], 0.018 µM. In addition, the Activity in data set [3] is less than 1%; in data set [7], “Non-Toxic”; in [11] it was less than 1%; in [14] it was less than 1%; in [16] it was less than 1%; in data set [17], “Non-Toxic”. Further, the half-life in data set [4] was 0.8 h; in data set [15], 1.1 h. Moreover, the Tmax in data set [5] was found to be 2 h. The inhibition in vivo at 50 mg/kg in data set [6] is 50%. Moreover, the inhibition result in data set [8] was “Active”. Moreover, the results for the AUC(0-t) in [9] and in [20] were 140 ng·h/mL and 673 ng·h/mL, respectively. The compound also had a clearance in data set [10] of 117 mL/min/kg. The Vd in data set [12] came to 8.01 L/kg. In data set [13], the inhibition entry was “inactive”. The Cmax in data set [19] was 136 ng/mL. Further, in data set [21], the solubility thermodynamic came to 41 µg/mL (≈ 71.8 µM).
